# Measurements as given in US6589957B2, “Compounds and methods of use for treatment of neurogenic inflammation” (Harbor Branch Oceanographic Institution, Inc., priority 1998, dated 2003).
# Test system: resiniferatoxin (RTX)-induced mouse ear edema
# Assay: Inhibition of resiniferatoxin-induced inflammation (edema) of the mouse ear
# Assay type: in vivo
# Settings: 50 μg/ear topically in acetone together with RTX 0.1 μg/ear, 30-minute incubation, relative to control group edema
# Procedure: Inhibition of Resiniferatoxin-Induced Inflammation (Edema) of the Mouse Ear
# Induction of mouse ear edema can be conducted by known methods (Inoue, 1-f., N. Nagata, Y. Koshffiara [1993]). Compounds to be tested for anti-neurogenic inflammatory activity are topically applied in acetone to the ears of mice in a solution that includes the edema-causing irritant resiniferatoxin (RTX). RTX alone (0.1 μg/ear) or in combination with various dilutions of test compound are applied to both sides of the left ears (5 mice per treatment group) and acetone is applied to all right ears. After a 30-minute incubation, the mice are sacrificed, the ears removed, and bores taken and weighed. Edema is measured by subtracting the weight of the right ear (acetone control) from the weight of the left ear (treated). Results are recorded as % decrease (inhibition) or % increase (potentiation) in edema relative to the control group edema.
# Bis-heterocycle compounds of the subject invention, e.g., the bis-indole compounds, show significant anti-inflammatory properties.
row,Structure (SMILES),inhibition of RTX-induced edema
1,CC1c2[nH]c(N)nc2C2(O)CC1c1c(-c3cnc(-c4c[nH]c5cc(Br)ccc45)c(=O)[nH]3)c[nH]c1C2=O (stereo not drawn) [dragmacidin f],approximately 69.9%
2,Nc1ncc(C(Cc2nc(C(=O)c3c[nH]c4cc(O)ccc34)[nH]c2-c2c[nH]c3cc(Br)ccc23)C(=O)O)[nH]1 (stereo not drawn) [topsentin d],approximately 96.9%
3,CC(c1cnc(N)[nH]1)c1nc(C(=O)c2c[nH]c3cc(O)ccc23)[nH]c1-c1c[nH]c2cc(Br)ccc12 (stereo not drawn) [topsentin e],approximately 88.4%
